In patent US6660885B2, “Polycyclic aryl and heteroaryl substituted benzenes useful for selective inhibition of the coagulation cascade” (Pharmacia Corporation, priority 2000, dated 2003):
Like-named read-outs stand apart in the source and are kept apart here.

Assays:
Type in all cases: biochemical
[1] = target: T1, trypsin, type IX from porcine pancreas (Sus scrofa, UniProt P00761); test: Trypsin Assay (L-BAPNA, 405 nm)
T1 construct: purchased Sigma, St. Louis Mo; host or cells: porcine pancreas
Method: 5 ug/ml trypsin, type IX^0 from porcine pancreas and 0.375 mM N-α-Benzoyl-L-arginine-p-nitroanilide (L-BAPNA) are added to a 96-well assay plate containing either inhibitor or buffer (50 mM Tris-HCl, pH 8.0, 100 mM NaCl, 0.1% BSA). The reactions, in a final volume of 100 ul are measured immediately at 405 nm to determine background absorbance. The plate is incubated at room temperature for 60 min, at which time the rate of hydrolysis of the substrate is measured by monitoring the reaction at 405 nm for the release of p-nitroaniline. Percent inhibition of trypsin activity is calculated from OD405nm value from the experimental and control sample.
(§1) Recombinant soluble TF, consisting of amino acids 1-219 of the mature protein sequence was expressed in E. coli and purified using a Mono Q Sepharose FPLC. Recombinant human Vlla was purchased from American Diagnostica, Greenwich Conn. and chromogenic substrate N-Methylsulfonyl-D-phe-gly-arg-p-nitroaniline was prepared by American Peptide Company, Inc., Sunnyvale, Calif. Factor Xa was obtained from Enzyme Research Laboratories, South Bend Ind., thrombin from Calbiochem, La Jolla, Calif., and trypsin and L-BAPNA from Sigma, St. Louis Mo. The chromogenic substrates S-2765 and S-2238 were purchased from Chromogenix, Sweden.

human thrombin = human thrombin (Homo sapiens, UniProt P00734); test: Thrombin Assay (chromogenic substrate, 405 nm); settings: for IC50: read-out: Thrombin II IC50; for Thrombin II percent inhibition: at 30 (uM)
Method: 0.28 nM human thrombin and 0.06 mM H-D-Phenylalanyl-L-pipecolyl-L-arginine-p-nitroaniline dihydrochloride are added to a 96-well assay plate containing either inhibitor or buffer (50 mM Tris-HCl, pH 8.0, 100 mM NaCl, 0.1% BSA). The reaction, in a final volume of 100 ul is measured immediately at 405 nm to determine background absorbance. The plate is incubated at room temperature for 60 min, at which time the rate of hydrolysis of the substrate is measured by monitoring the reaction at 405 nm for the release of p-nitroaniline. Percent inhibition of thrombin activity is calculated from OD405nm value from the experimental and control sample.

human factor Xa = target: T2, human factor Xa (Homo sapiens, UniProt P00742); test: Xa Assay (chromogenic substrate S-2765, 405 nm)
T2 construct: leads from XII to XIIa to XIa to IXa and to the conversion of X to Xa; purchased Enzyme Research Laboratories, South Bend Ind
Method: 0.3 nM human factor Xa and 0.15 mM N-a-Benzyloxycarbonyl-D-arginyl-L-glycyl-L-arginine-p-nitroaniline-dihydrochloride (S-2765) are added to a 96-well assay plate containing either inhibitor or buffer (50 mM Tris-HCl, pH 8.0, 100 mM NaCl, 0.1% BSA). The reaction, in a final volume of 100 ul is measured immediately at 405 nm to determine background absorbance. The plate is incubated at room temperature for 60 min, at which time the rate of hydrolysis of the substrate is measured by monitoring the reaction at 405 nm for the release of p-nitroaniline. Percent inhibition of Xa activity is calculated from OD405nm value from the experimental and control sample.
as §1

[2] = target: T3, recombinant soluble tissue factor and recombinant human factor VIIa (TF-VIIa) (Homo sapiens, UniProt P08709); test: TF-VIIa Assay (chromogenic substrate hydrolysis, 405 nm); settings: read-out: IF-VIIA IC50
T3 construct: purchased American Diagnostica, Greenwich Conn; soluble TF made in house in E. coli
T3 sequence (P08709 213-466 limits assumed): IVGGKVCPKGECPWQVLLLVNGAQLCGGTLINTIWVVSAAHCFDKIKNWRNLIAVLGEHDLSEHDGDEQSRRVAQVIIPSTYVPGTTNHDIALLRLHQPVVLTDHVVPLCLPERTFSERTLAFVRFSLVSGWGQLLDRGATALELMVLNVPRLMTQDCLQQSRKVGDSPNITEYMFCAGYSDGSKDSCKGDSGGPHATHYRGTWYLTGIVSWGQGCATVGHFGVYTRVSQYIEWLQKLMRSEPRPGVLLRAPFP
T3 sequence (P08709 61-212 limits assumed): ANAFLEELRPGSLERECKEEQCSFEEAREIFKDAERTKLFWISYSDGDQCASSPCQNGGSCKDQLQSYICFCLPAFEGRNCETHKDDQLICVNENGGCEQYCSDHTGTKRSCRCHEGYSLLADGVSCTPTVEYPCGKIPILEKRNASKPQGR
T3 sequence (P13726 33-251 partner limits assumed): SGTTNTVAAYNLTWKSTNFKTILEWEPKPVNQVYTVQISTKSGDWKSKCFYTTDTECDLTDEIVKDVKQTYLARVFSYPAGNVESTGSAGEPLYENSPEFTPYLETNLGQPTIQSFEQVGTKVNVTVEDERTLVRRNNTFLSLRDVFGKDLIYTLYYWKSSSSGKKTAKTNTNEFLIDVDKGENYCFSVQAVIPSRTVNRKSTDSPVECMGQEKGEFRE
Method: In this assay 100 nM recombinant soluble tissue factor and 2 nM recombinant human factor VIla are added to a 96-well assay plate containing 0.4 mM of the substrate, N-Methylsulfonyl-D-phe-gly-arg-p-nitroaniline and either inhibitor or buffer (5 mM CaCI2, 50 mM Tris-HCl, pH 8.0, 100 mM NaCl, 0.1% BSA). The reaction, in a final volume of 100 ul is measured immediately at 405 nm to determine background absorbance. The plate is incubated at room temperature for 60 min, at which time the rate of hydrolysis of the substrate is measured by monitoring the reaction at 405 nm for the release of p-nitroaniline. Percent inhibition of TF-VIIa activity is calculated from OD405nm value from the experimental and control sample.

T1 sequence (P00761 9-231): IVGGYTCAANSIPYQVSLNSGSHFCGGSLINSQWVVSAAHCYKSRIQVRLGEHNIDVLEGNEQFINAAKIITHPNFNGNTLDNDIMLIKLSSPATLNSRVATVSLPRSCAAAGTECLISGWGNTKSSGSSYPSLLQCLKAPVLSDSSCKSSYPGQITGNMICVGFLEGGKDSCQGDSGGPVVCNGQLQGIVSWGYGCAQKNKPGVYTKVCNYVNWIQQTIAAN
T2 sequence (P00742 235-488 limits assumed): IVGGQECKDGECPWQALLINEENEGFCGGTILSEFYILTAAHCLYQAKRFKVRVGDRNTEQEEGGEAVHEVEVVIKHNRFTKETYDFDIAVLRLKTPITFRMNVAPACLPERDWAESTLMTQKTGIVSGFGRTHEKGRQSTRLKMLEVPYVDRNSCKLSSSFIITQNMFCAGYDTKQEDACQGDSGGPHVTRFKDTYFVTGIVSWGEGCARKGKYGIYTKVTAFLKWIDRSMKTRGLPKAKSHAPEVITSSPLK
T2 sequence (P00742 41-179 limits assumed): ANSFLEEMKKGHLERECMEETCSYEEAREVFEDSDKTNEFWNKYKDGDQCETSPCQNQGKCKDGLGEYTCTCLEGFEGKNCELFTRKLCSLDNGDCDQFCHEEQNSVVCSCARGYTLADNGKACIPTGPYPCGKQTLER

Row | Compound | IC50 ([1]; read-out: Trpysin II IC50) | IC50 (human thrombin) | IC50 (human factor Xa) | IC50 [1] | Thrombin II percent inhibition (human thrombin) | IC50 [2] | Factor Xa percent inhibition (human factor Xa; at 30 (uM)) | Factor Xa percent inhibition (human factor Xa; concentration not given)
1 | O=C(NCC1CCNCC1)c1cc(NS(=O)(=O)Cc2ccccc2)ccc1Sc1ccccc1 [Example 1] | 0.3 µM | > 30 µM | > 30 µM | – | – | – | – | –
2 | CN(C)c1ccc(CNC(=O)c2cc(NS(=O)(=O)Cc3ccccc3)ccc2Sc2ccccc2)cc1 [Example 2] | > 30 µM | > 30 µM | – | – | – | – | – | –
3 | O=C(NCc1ccncc1)c1cc(NS(=O)(=O)Cc2ccccc2)ccc1Sc1ccccc1 [Example 3] | > 30 µM | > 30 µM | – | – | – | – | – | –
4 | Cl.N=C(N)c1ccc(CNC(=O)c2cc(NS(=O)(=O)Cc3ccccc3)ccc2Sc2ccccc2)cc1 [Example 4] | – | – | – | 0.3 µM | 22% at 30 | – | – | –
5 | N=C(N)c1cccc(CNC(=O)c2cc(NS(=O)(=O)Cc3ccccc3)ccc2Sc2ccccc2)c1 [Example 5] | 23 µM | – | – | – | 43% at 30 | > 30 µM | 7% at 30 | –
6 | N=C(N)NCCCNC(=O)c1cc(NS(=O)(=O)Cc2ccccc2)ccc1Sc1ccccc1 [Example 6] | > 100 µM | > 100 µM | > 100 µM | – | – | > 100 µM | – | –
7 | N=C(N)NCCCCNC(=O)c1cc(NS(=O)(=O)Cc2ccccc2)ccc1Sc1ccccc1 [Example 7] | > 100 µM | > 100 µM | > 100 µM | – | – | > 100 µM | – | –
8 | N=C(N)NCCCCCNC(=O)c1cc(NS(=O)(=O)Cc2ccccc2)ccc1Sc1ccccc1 [Example 8] | > 100 µM | > 100 µM | > 100 µM | – | – | > 100 µM | – | –
9 | O=C(Cc1c(F)ccc(NS(=O)(=O)Cc2ccccc2)c1F)NCC1CCNCC1 [Example 9] | 0.3 µM | > 30 µM | – | – | – | – | – | –
10 | CN(C)c1ccc(CNC(=O)Cc2c(F)ccc(NS(=O)(=O)Cc3ccccc3)c2F)cc1 [Example 10] | > 30 µM | > 30 µM | > 30 µM | – | – | – | – | –
11 | O=C(Cc1c(F)ccc(NS(=O)(=O)Cc2ccccc2)c1F)NCc1ccncc1 [Example 11] | > 30 µM | > 30 µM | > 30 µM | – | – | – | – | –
12 | O=C(Cc1c(F)ccc(NS(=O)(=O)Cc2ccccc2)c1F)NCCCn1ccnc1 [Example 12] | > 30 µM | > 30 µM | – | – | – | – | – | –
13 | N=C(N)c1cccc(CNC(=O)Cc2c(F)ccc(NS(=O)(=O)Cc3ccccc3)c2F)c1 [Example 13] | > 30 µM | > 30 µM | > 30 µM | – | – | – | – | –
14 | N=C(N)c1ccc(CNC(=O)Cc2c(F)ccc(NS(=O)(=O)Cc3ccccc3)c2F)cc1 [Example 14] | 7.3 µM | ~30 µM | – | – | – | – | – | –
15 | N=C(N)NCCCCCNC(=O)Cc1c(F)ccc(NS(=O)(=O)Cc2ccccc2)c1F [Example 15] | > 30 µM | > 30 µM | – | – | – | – | – | –
16 | N=C(N)c1ccc(CNC(=O)Cc2c(F)ccc(NCCc3ccccc3)c2F)cc1 [Example 16] | 0.8 µM | 1.6 µM | – | – | – | 16.4 µM | 1% at 30 | –
17 | N=C(N)c1ccc(CNC(=O)Cc2c(-c3ccccc3)ccc(NCCc3ccccc3)c2F)cc1 [Example 17] | 0.2 µM | 7 µM | – | – | – | 4 µM | – | –
18 | COc1c(NCCc2ccccc2)ccc(-c2ccccc2)c1CC(=O)NCc1ccc(C(=N)N)cc1 [Example 18] | 0.5 µM | 9.5 µM | > 30 µM | – | – | 25 µM | – | –
19 | N=C(N)c1ccc(CNC(=O)Cc2c(-c3ccccc3)ccc(NCCc3ccccc3)c2O)cc1 [Example 19] | 0.2 µM | 7 µM | – | – | – | 2.7 µM | – | –
20 | N=C(N)c1ccc(CNC(=O)Cc2c(-c3cccc(N)c3)ccc(NCc3ccccc3)c2F)cc1 [Example 20] | 0.2 µM | 9 µM | > 30 µM | – | – | 0.67 µM | – | –
21 | CC(C)Nc1ccc(-c2cccc(N)c2)c(CC(=O)NCc2ccc(C(=N)N)cc2)c1F [Example 21] | < 0.04 µM | – | – | – | – | – | – | 18%
22 | COc1c(NC(C)C)ccc(-c2ccccc2)c1CC(=O)NCc1ccc(C(=N)N)cc1 [Example 22] | 0.1 µM | 7.9 µM | – | – | – | 14.7 µM | – | –
